In ChEMBL document CHEMBL4665755, “Discovery of a phenylpyrazole amide ROCK inhibitor as a tool molecule for in vivo studies” (Bioorg Med Chem Lett, 2020):

Experiments:
[1] = Metabolic stability in human liver microsomes assessed as half life; type: ADME, Microsome
[2] = Metabolic stability in human liver microsomes assessed as parent compound remaining at 0.5 uM after 10 mins; type: ADME, Microsome; settings: read-out: Stabilty
[3] = Permeability of the compound at pH 5.5 by PAMPA; type: ADME; settings: read-out: permeability
[4] = Cmax in mouse at 10 mg/kg, po; type: ADME, organism-based; design: route oral, dose 10 mg/kg; settings: in vivo
[5] = Permeability of the compound at pH 7.4 by PAMPA; type: ADME; settings: read-out: permeability
[6] = AUC in mouse at 10 mg/kg, po; type: ADME, organism-based; design: dose 10 mg/kg; settings: in vivo
[7] = Cmax in mouse at 2 mg/kg, po; type: ADME, organism-based; design: route oral, dose 2 mg/kg; settings: in vivo
[8] = AUC in mouse at 2 mg/kg, po; type: ADME, organism-based; design: dose 2 mg/kg; settings: in vivo

Question: For `COc1cc(NC(=O)[C@H](N)c2ccccc2Cl)ccc1-c1cn[nH]c1`, which half-life [1] is on record?
Answer: The half-life was 20 min.

Question: With `CCc1cc(C(=O)N[C@H](C)c2cccc(OC)c2)ccc1-c1cn[nH]c1` as the molecule, how does the remaining at 10 min, 0.5 µM [2] read?
Answer: The remaining at 10 min, 0.5 µM was 38%.

Question: For `COc1cccc([C@@H](C)NC(=O)c2ccc(-c3cn[nH]c3)c(C#N)c2)c1`, which remaining at 10 min, 0.5 µM [2] is on record?
Answer: The remaining at 10 min, 0.5 µM was 67%.

Question: Which remaining at 10 min, 0.5 µM [2] does the source give for `COc1cc(C(=O)N[C@H](CO)c2ccccc2)ccc1-c1cn[nH]c1` here?
Answer: Its remaining at 10 min, 0.5 µM is 87%.

Question: What about the Papp [3] of the same molecule?
Answer: The Papp was 10.5 ×10⁻⁶ cm/s.

Question: What about the Cmax [4] of the same molecule?
Answer: The Cmax was 21 µM.

Question: And the Papp [5]?
Answer: Its Papp is 11 ×10⁻⁶ cm/s.

Question: And the AUC [6]?
Answer: Its AUC is 90 µM·h.

Question: What does the source list for `COc1cc(C(=O)N[C@@H](c2ccccc2F)C(C)(C)O)ccc1-c1cn[nH]c1`?
Answer: remaining at 10 min, 0.5 µM [2]: 92%; Papp [3]: 52 ×10⁻⁶ cm/s; Cmax [7]: 1.3 µM; Papp [5]: 44 ×10⁻⁶ cm/s; AUC [8]: 5 µM·h

Question: For `COc1cccc([C@@H](C)NC(=O)c2ccc(-c3cn[nH]c3)c(OC)c2)c1`, which remaining at 10 min, 0.5 µM [2] is on record?
Answer: Its remaining at 10 min, 0.5 µM is 32%.

Question: Which remaining at 10 min, 0.5 µM [2] does the source give for `COc1cc(C(=O)N[C@H](CO)c2c(F)cccc2F)ccc1-c1cn[nH]c1` here?
Answer: The remaining at 10 min, 0.5 µM was 90%.

Question: Which results are given for `COc1cc(C(=O)N[C@H](C)c2c(F)cccc2F)ccc1-c1cn[nH]c1`?
Answer: remaining at 10 min, 0.5 µM [2]: 79%; Papp [3]: 61 ×10⁻⁶ cm/s; Cmax [4]: 23 µM; Papp [5]: 61 ×10⁻⁶ cm/s; AUC [6]: 140 µM·h

Question: For `COc1cccc([C@@H](C)NC(=O)c2ccc(-c3cn[nH]c3)c(Cl)c2)c1`, which remaining at 10 min, 0.5 µM [2] is on record?
Answer: The remaining at 10 min, 0.5 µM was 59%.

Question: For `COc1cc(NC(=O)Cc2ccccc2Cl)ccc1-c1cn[nH]c1`, which half-life [1] is on record?
Answer: Its half-life is 36 min.

Question: For `COc1cccc([C@@H](C)NC(=O)c2ccc(-c3cn[nH]c3)cc2OC)c1`, which remaining at 10 min, 0.5 µM [2] is on record?
Answer: Its remaining at 10 min, 0.5 µM is 49%.

Question: With `COc1cc(NC(=O)[C@@H](N)CCc2ccccc2)ccc1-c1cn[nH]c1` as the molecule, how does the half-life [1] read?
Answer: Its half-life is 62 min.

Question: With `COc1cccc([C@@H](C)NC(=O)c2ccc(-c3cn[nH]c3)c(C(F)(F)F)c2)c1` as the molecule, how does the remaining at 10 min, 0.5 µM [2] read?
Answer: The remaining at 10 min, 0.5 µM was 44%.

Question: Which results are given for `COc1cc(NC(=O)[C@H](N)CCc2ccccc2)ccc1-c1cn[nH]c1`?
Answer: half-life [1]: 41 min; Papp [3]: 45 ×10⁻⁶ cm/s; Cmax [4]: 28 µM; Papp [5]: 74 ×10⁻⁶ cm/s; AUC [6]: 140 µM·h

Question: With `COc1cccc(CNC(=O)c2ccc(-c3cn[nH]c3)c(OC)c2)c1` as the molecule, how does the remaining at 10 min, 0.5 µM [2] read?
Answer: Its remaining at 10 min, 0.5 µM is 49%.

Question: Which remaining at 10 min, 0.5 µM [2] does the source give for `COc1cc(C(=O)N[C@H](CN)c2ccccc2)ccc1-c1cn[nH]c1` here?
Answer: Its remaining at 10 min, 0.5 µM is 93%.

Question: With `COc1cccc([C@@H](C)NC(=O)c2ccc(-c3cn[nH]c3)c(OC)c2F)c1` as the molecule, how does the remaining at 10 min, 0.5 µM [2] read?
Answer: Its remaining at 10 min, 0.5 µM is 57%.

Question: For `COc1cc(C(=O)N[C@H](C)c2ccccc2F)ccc1-c1cn[nH]c1`, which remaining at 10 min, 0.5 µM [2] is on record?
Answer: The remaining at 10 min, 0.5 µM was 73%.

Question: Which results are given for `COc1cccc([C@@H](C)NC(=O)c2ccc(-c3cn[nH]c3)c(C)c2)c1`?
Answer: remaining at 10 min, 0.5 µM [2]: 74%; Papp [3]: 29 ×10⁻⁶ cm/s; Cmax [4]: 12 µM; Papp [5]: 20 ×10⁻⁶ cm/s; AUC [6]: 35 µM·h

Question: For `COc1cc(NC(=O)[C@H](N)Cc2ccc(Cl)c(Cl)c2)ccc1-c1cn[nH]c1`, which half-life [1] is on record?
Answer: Its half-life is 31 min.

Question: Which half-life [1] does the source give for `COc1cc(NC(=O)[C@H](O)c2ccccc2Cl)ccc1-c1cn[nH]c1` here?
Answer: Its half-life is 15 min.
